The target of data set [1] is T1, Acetylcholinesterase (Electrophorus electricus, UniProt O42275). The data set is described as follows: Competitive inhibition of electric eel AChE assessed as inhibition constant for enzyme inhibitor complex preincubated for 20 mins followed by acetylthiocholine iodide substrate addition and measured for 30 mins at 1 min intervals by Ellman's method. A general note: DTNB colorimetry detects thiols as they appear.

In data set [2] the target is T1, Acetylcholinesterase. The data set is described as follows: Competitive inhibition of electric eel AChE assessed as inhibition constant for enzyme-substrate-inhibitor complex preincubated for 20 mins followed by acetylthiocholine iodide substrate addition and measured for 30 mins at 1 min intervals by Ellman's method.
For data set [3], the system named is FaDu. Briefly: Cytotoxicity against human FADU cells assessed as cell survival at 40 uM after 96 hrs by sulforhodamine B assay relative to control. It counts as functional. The following applies: read-out: Survival. A general note: Sulforhodamine B stains cellular protein and so reports cell mass.
Data set [4] has as its system HT-29. The data set is described as follows: Cytotoxicity against human HT-29 cells assessed as cell survival at 40 uM after 96 hrs by sulforhodamine B assay relative to control. The class given is functional. Particulars: HT-29, 96 h, read-out: Survival.
Data set [5] relates to MCF7. Briefly: Cytotoxicity against human MCF7 cells assessed as cell survival at 40 uM after 96 hrs by sulforhodamine B assay relative to control. The class given is functional. Particulars: MCF7, 96 h, read-out: Survival.
For data set [6], the system named is A253 cell line. The data set is described as follows: Cytotoxicity against human A253 cells assessed as cell survival at 40 uM after 96 hrs by sulforhodamine B assay relative to control. It counts as functional. Particulars: A253, 96 h, read-out: Survival.
The subject of data set [7] is SW-1736. The data set is described as follows: Cytotoxicity against human SW1736 cells assessed as cell survival at 40 uM after 96 hrs by sulforhodamine B assay relative to control. Particulars: SW-1736, 96 h, read-out: Survival. It counts as functional.
A short description of data set [8]: Cytotoxicity against mouse NIH/3T3 cells assessed as cell survival at 40 uM after 96 hrs by sulforhodamine B assay relative to control. It counts as cell-based, NIH3T3. Particulars: read-out: Survival.
Data set [9] can be described thus: Solubility of the compound in DMSO. The class given is physicochemical.
Data set [10] has as its system FaDu. Briefly: Cytotoxicity against human FADU cells assessed as cell survival at 60 uM after 96 hrs by sulforhodamine B assay relative to control. It counts as functional. The following applies: read-out: Survival.
The subject of data set [11] is HT-29. The data set is described as follows: Cytotoxicity against human HT-29 cells assessed as cell survival at 60 uM after 96 hrs by sulforhodamine B assay relative to control. Particulars: HT-29, 96 h, read-out: Survival. The class given is functional.
The subject of data set [12] is MCF7. The data set is described as follows: Cytotoxicity against human MCF7 cells assessed as cell survival at 60 uM after 96 hrs by sulforhodamine B assay relative to control. It counts as functional. Particulars: MCF7, 96 h, read-out: Survival.
Data set [13] relates to A253 cell line. The data set is described as follows: Cytotoxicity against human A253 cells assessed as cell survival at 60 uM after 96 hrs by sulforhodamine B assay relative to control. The class given is functional. Particulars: A253, 96 h, read-out: Survival.
Data set [14] has as its system SW-1736. Briefly: Cytotoxicity against human SW1736 cells assessed as cell survival at 60 uM after 96 hrs by sulforhodamine B assay relative to control. Particulars: SW-1736, 96 h, read-out: Survival. The class given is functional.
The nature of data set [15]: Cytotoxicity against mouse NIH/3T3 cells assessed as cell survival at 60 uM after 96 hrs by sulforhodamine B assay relative to control. The class given is cell-based, NIH3T3. Particulars: read-out: Survival.

Molecules are shown by their SMILES.

T1 sequence (O42275 whole entry): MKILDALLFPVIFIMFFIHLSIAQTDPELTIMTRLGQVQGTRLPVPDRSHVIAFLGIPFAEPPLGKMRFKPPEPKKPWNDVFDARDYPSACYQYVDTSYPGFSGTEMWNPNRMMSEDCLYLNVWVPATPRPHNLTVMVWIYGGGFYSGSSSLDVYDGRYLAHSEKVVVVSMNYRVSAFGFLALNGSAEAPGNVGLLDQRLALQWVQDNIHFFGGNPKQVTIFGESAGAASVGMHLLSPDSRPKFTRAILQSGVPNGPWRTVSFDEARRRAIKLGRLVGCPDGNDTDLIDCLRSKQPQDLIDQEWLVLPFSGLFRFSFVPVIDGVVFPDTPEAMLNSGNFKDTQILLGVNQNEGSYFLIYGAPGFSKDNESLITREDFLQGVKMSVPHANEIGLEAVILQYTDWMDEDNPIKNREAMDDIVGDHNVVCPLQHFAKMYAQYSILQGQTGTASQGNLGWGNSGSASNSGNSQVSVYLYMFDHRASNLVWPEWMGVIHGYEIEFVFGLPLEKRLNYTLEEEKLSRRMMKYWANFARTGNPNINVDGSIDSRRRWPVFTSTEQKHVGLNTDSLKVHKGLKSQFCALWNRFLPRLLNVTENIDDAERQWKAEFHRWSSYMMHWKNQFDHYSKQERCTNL

What is called Ki is the dissociation constant of the complex between target and ligand, obtained from inhibition or displacement. As to `CCCCCCCCCCCCC/C=C/C(=O)N1CCCCC1`, the Ki in data set [1] is 7.45 µM; in data set [2] it was more than 50 µM. Also, the viability at 40 µM in data set [3] is 90%; in data set [4], 47%; in [5], 40%; in data set [6] it was 57%; in data set [7], 77%. Besides, in data set [8], the viability at 96 h, 40 µM came to 80%.

Take `CCCCCCCCCCCCCCC/C=C/C(=O)N1CCCCC1`: the solubility entry in [9] is recorded as “Insoluble”.

For the compound `CCCCCCCCCCCCCCC/C=C/C(=O)N1CCCC1`, in data set [9], the solubility entry is on record as “Insoluble”.

Regarding `CCCCCCCCCCC/C=C/C(=O)N1CCCCCCC1`, the inhibition constant (Ki) was 6.83 µM in [1] and 23 µM in data set [2]. In addition, the viability at 60 µM came out at 84% in data set [10]; 52% in data set [11]; 40% in [12]; 57% in data set [13]; 76% in data set [14]. In data set [15], the viability at 96 h, 60 µM came to 70%.

As to `CCCCCCCCCCCCCCCCC/C=C/C(=O)N1CCC1`, the solubility result in data set [9] is listed as “Insoluble”.

In the case of `CCCCCCCCCCCCCCC/C=C/C(=O)N1CCC1`, in [9], the solubility entry is “Insoluble”.

For `CCCCCCCCCCCCC/C=C/C(=O)N1CCC1`, the viability at 40 µM came to 96% in [3]; 71% in data set [4]; 62% in [5]; 69% in data set [6]; 88% in data set [7]. Moreover, the viability at 96 h, 40 µM in data set [8] was found to be 92%.

With `CCCCCCCCCCCCCCC/C=C/C(=O)N1CCCCCC1`, the figures for the Ki in data set [1] and in [2] were 3.16 µM and 41.5 µM, respectively. Further, the viability at 60 µM in data set [10] came to 94%; in data set [11] it was 76%; in data set [12], 75%; in data set [13], 88%; in [14] it was 86%. Further, the viability at 96 h, 60 µM in [15] was determined as 74%.

`CCCCCCCCCCCCCCCCC/C=C/C(=O)N1CCCCCCC1`: the solubility entry in data set [9] is given as “Insoluble”.

For `CCCCCCCCCCC/C=C/C(=O)N1CCCC1`, the viability at 60 µM is 96% in [10]; 86% in data set [11]; 69% in [12]; 86% in data set [13]; 99% in data set [14]. Moreover, in [15], the viability at 96 h, 60 µM worked out at 78%.

With `CCCCCCCCCCCCCCCCC/C=C/C(=O)N1CCCC1`, the solubility result in data set [9] is on record as “Insoluble”.

For `CCCCCCCCCCC/C=C/C(=O)N1CCC1`, the viability at 60 µM in data set [10] was 95%; in [11] it was 84%; in [12] it was 59%; in [13], 77%; in [14] it was 89%. Also, the viability at 96 h, 60 µM in [15] stood at 80%.

On to `CCCCCCCCCCCCC/C=C/C(=O)N1CCCC1`, for which the viability at 40 µM in [3] was 79%; in [4], 24%; in data set [5], 24%; in data set [6], 44%; in data set [7], 42%. For the same compound, the viability at 96 h, 40 µM in data set [8] was 60%.

Turning to `CCCCCCCCCCC/C=C/C(=O)N1CCCCCC1`, the figures for the Ki in [1] and in data set [2] were 9.99 µM and 45.4 µM, respectively. The viability at 60 µM in data set [10] is 85%; in [11], 57%; in [12], 35%; in [13], 63%; in data set [14], 80%. In data set [15], the viability at 96 h, 60 µM turned out to be 63%.

With `CCCCCCCCCCCCCCC/C=C/C(=O)N1CCCCCCC1`, the Ki in data set [1] is 5.09 µM; in [2], more than 50 µM. Further, the viability at 60 µM in data set [10] was 93%; in data set [11], 69%; in data set [12], 83%; in data set [13] it was 80%; in data set [14], 81%. Also, in data set [15], the viability at 96 h, 60 µM stood at 75%.

On to `CCCCCCCCCCC/C=C/C(=O)N1CCCCC1`, for which the viability at 40 µM came to 97% in [3]; 68% in data set [4]; 51% in data set [5]; 67% in data set [6]; 63% in data set [7]. In addition, the viability at 96 h, 40 µM in [8] turned out to be 74%.

For the compound `CCCCCCCCCCCCCCCCC/C=C/C(=O)N1CCCCC1`, the solubility result in data set [9] is “Insoluble”.

Regarding `CCCCCCCCCCCCCCCCC/C=C/C(=O)N1CCCCCC1`, the solubility entry in data set [9] was “Insoluble”.

In the case of `CCCCCCCCCCCCC/C=C/C(=O)N1CCCCCC1`, the inhibition constant Ki in data set [1] is 3.41 µM; in data set [2], 81.9 µM. In addition, the viability at 40 µM is 77% in [3]; 22% in data set [4]; 27% in data set [5]; 46% in data set [6]; 61% in data set [7]. Also, the viability at 96 h, 40 µM in data set [8] came to 69%.

On to `CCCCCCCCCCCCC/C=C/C(=O)N1CCCCCCC1`, for which the results for the Ki in data set [1] and in data set [2] were 2.04 µM and 23.3 µM, respectively. Besides, the viability at 40 µM in data set [3] worked out at 61%; in data set [4] it was 15%; in [5] it was 27%; in data set [6], 40%; in data set [7] it was 43%. The viability at 96 h, 40 µM in [8] is 50%.

Source of the values: ChEMBL document CHEMBL4190319, “Piperlongumine B and analogs are promising and selective inhibitors for acetylcholinesterase” (Eur J Med Chem, 2017).
